The values below come from paper PMC3005334 (Cell, 2010).

Assay [1] deals with T1, Ypk1 (Saccharomyces cerevisiae, UniProt P12688).
T1 sequence (P12688 1-680): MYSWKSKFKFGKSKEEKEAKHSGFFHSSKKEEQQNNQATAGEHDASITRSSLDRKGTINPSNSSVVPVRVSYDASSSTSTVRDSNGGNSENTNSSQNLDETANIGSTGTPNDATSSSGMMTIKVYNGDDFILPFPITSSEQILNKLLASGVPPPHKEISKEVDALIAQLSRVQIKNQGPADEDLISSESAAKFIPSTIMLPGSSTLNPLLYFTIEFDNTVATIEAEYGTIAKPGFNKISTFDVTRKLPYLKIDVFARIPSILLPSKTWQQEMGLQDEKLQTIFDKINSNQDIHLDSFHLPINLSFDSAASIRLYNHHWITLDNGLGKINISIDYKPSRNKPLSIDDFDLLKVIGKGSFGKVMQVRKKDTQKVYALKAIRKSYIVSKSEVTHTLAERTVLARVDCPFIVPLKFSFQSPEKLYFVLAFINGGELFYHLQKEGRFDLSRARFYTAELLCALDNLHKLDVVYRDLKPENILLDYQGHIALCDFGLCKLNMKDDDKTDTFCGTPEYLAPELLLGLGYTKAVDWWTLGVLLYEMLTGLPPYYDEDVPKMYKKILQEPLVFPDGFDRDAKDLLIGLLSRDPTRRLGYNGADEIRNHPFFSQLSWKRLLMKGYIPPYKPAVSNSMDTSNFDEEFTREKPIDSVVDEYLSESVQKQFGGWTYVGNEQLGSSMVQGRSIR
Description: In vitro kinase activity assay. It counts as biochemical.

A further assay addresses T2, Kin4 (Saccharomyces cerevisiae, UniProt Q01919).
T2 sequence (Q01919 1-800): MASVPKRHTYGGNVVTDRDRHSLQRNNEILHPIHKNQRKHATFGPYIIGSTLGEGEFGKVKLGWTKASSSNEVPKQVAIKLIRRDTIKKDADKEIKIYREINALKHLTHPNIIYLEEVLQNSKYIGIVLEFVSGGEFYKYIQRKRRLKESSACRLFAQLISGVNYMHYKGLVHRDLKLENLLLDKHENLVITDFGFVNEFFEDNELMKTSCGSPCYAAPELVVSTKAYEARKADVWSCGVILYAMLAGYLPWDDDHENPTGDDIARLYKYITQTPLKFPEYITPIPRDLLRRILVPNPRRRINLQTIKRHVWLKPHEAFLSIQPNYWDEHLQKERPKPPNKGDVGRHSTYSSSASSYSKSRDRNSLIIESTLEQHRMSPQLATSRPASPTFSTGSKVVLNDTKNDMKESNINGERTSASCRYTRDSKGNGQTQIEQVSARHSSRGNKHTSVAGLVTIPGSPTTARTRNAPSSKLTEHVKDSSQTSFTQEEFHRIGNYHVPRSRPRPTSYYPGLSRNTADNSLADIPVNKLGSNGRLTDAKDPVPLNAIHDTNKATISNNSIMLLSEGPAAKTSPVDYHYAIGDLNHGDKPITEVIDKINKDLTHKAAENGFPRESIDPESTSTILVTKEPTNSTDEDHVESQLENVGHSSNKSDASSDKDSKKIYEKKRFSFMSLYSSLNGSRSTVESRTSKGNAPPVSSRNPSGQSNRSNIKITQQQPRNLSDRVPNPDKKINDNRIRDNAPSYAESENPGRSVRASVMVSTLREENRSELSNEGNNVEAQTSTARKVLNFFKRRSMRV
Description: Affinity purification of tagged protein kinase and LC-MS of bound metabolites. It counts as binding. As to conditions: 379.337 amu at 10.98 min.

The target in the next assay is T3, Ssk22 (Saccharomyces cerevisiae, UniProt P25390).
T3 sequence (P25390 1-1331): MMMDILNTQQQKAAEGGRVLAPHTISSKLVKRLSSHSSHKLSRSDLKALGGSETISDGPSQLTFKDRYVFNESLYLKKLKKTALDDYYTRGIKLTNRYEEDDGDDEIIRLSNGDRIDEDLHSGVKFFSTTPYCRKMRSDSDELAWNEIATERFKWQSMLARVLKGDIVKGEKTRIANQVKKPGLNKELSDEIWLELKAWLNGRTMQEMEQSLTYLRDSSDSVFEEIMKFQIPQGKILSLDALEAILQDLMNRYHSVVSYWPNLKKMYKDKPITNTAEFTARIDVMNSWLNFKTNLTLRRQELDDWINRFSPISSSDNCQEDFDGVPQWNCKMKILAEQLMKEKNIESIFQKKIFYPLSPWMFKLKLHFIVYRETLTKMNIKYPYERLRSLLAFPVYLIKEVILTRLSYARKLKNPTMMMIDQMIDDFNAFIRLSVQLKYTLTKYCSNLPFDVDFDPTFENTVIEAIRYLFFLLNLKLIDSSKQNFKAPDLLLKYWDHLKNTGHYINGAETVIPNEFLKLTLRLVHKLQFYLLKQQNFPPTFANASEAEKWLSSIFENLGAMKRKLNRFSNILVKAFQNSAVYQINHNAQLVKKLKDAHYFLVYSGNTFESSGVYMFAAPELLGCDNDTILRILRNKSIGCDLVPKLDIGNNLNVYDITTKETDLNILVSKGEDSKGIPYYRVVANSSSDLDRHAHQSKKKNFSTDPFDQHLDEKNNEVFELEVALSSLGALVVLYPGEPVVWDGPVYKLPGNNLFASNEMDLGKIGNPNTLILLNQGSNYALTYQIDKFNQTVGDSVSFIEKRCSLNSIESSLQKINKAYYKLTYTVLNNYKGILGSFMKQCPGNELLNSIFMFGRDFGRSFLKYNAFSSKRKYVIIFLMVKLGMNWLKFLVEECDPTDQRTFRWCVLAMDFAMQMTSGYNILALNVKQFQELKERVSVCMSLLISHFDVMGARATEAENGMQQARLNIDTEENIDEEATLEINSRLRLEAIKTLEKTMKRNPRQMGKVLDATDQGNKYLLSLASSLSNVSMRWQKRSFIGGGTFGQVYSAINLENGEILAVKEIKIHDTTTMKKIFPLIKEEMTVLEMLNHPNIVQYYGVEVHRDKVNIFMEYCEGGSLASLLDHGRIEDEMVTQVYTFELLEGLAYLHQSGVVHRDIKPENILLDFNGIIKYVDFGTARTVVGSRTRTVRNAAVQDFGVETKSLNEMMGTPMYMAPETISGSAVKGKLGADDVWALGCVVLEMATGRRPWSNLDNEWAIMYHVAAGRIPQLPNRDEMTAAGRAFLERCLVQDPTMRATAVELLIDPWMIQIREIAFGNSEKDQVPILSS
Description: Ssk22 protein levels purified from erg4Δ cells with exogenous ergosterol. It counts as cell-based. As to conditions: erg4Δ mutant strain, exogenous ergosterol added to the medium.

Assay [2] concerns the target T1, Ypk1. Description: Affinity purification of tagged protein kinase and LC-MS of bound metabolites. It counts as binding. Conditions: identified against pure standards.
For a further assay, the target named is Erg4 (Saccharomyces cerevisiae, UniProt P25340). It counts as binding. Conditions: in vivo bound, LC-MS; natural synthesizing enzyme.
Sequence of Erg4 (P25340 whole entry): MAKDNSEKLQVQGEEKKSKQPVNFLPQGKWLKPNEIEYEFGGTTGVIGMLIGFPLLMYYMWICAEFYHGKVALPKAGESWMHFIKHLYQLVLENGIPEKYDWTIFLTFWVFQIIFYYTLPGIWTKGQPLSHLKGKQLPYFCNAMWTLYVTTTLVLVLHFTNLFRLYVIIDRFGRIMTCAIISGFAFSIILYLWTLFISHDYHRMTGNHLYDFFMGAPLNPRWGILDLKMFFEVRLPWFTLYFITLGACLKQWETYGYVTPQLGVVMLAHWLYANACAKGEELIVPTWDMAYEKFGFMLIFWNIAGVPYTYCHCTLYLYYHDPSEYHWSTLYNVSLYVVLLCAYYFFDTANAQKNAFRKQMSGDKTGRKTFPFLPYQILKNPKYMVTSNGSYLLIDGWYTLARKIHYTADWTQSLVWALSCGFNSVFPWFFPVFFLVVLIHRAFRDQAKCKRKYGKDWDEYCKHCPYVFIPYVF

For `CC(C)[C@@H](C)/C=C/[C@@H](C)[C@H]1CC[C@H]2C3=CC=C4C[C@@H](O)CC[C@]4(C)[C@H]3CC[C@]12C` [ergosterol], the figures for the “Ypk1 in vitro kinase activity with increasing concentrations of ergosterol” value on Ypk1 [1] (Ypk1 from erg4Δ strain lacking ergosterol) and on Ypk1 [1] (Ypk1 from wild type cells grown in the presence of 0.4 mM ergosterol) were “could not be stimulated” and “could be stimulated to a similar extent”, respectively. The “binding to Kin4” value on Kin4 is “specific binding”. Further, the Ssk22 protein levels entry on Ssk22 was “restored Ssk22 levels”. The “metabolite extracted from Ypk1” value at Ypk1 [2] is on record as “bound metabolite”. Further, on Erg4, the “binding to Erg4” value is reported as “bound”.
